Assay [1] deals with T1, PTGR2 (Homo sapiens, UniProt Q8N8N7). The experiment in a line: In vitro LCMS-based activity assay for PTGR2 (15-keto-PGE2 reductase activity). Type of assay: biochemical. On the procedure: Aliquots (1 μL) of test compounds dissolved in DMSO were transferred to 1.5 mL eppendorf tubes followed by addition of recombinant human PTGR2 (44 μL, 200 nM final concentration) in freshly prepared reaction buffer (Tris Buffer, 1 mM EDTA, 50 μM TCEP, 300 μM NADPH). The resulting mixture was vortexed and then incubated at 37° C. for 20 min. Next, a 5 μL solution of 15-keto-PGE2 substrate (20 μM final concentration) in reaction buffer was added and the reaction was allowed to proceed for 30 min at 37° C. Reactions were quenched by the addition of 0.5% AcOH in ethyl acetate (800 μL), water (300 μL) and 100 μL of internal standard PGE2-d4 (30 pmol/sample) dissolved in 1:1 methanol/water. Phases were separated by centrifugation and the organic layer was collected and dried under a stream of N2, then stored at −80° C. until analysis. Directly prior to analysis, samples were reconstituted in 100 μL of MeCN:H2O (1:1, v/v) and analyzed by LC/MS/MS. All conditions were performed in triplicate and repeated at least three independent times.
The following MS parameters were used to measure the indicated metabolites by MRM (precursor ion, product ion, collision energy, polarity): PGE2-d4 (355, 275, 18), 13,14-dihydro-15-keto-PGE2 (351, 333, 18) and 15-keto-PGE2 (349, 161, 20). 15-keto-PGE2 and 13,14-dihydro-15-keto-PGE2 levels were quantified by determining peak areas in relation to internal standard PGE2-d4. Non-deuterated 15-keto-PGE2 and 13,14-dihydro-15-keto-PGE2 standards were used to confirm retention time and fragmentation.
All data fitting and statistical analysis performed using GraphPad Prism version 6.00 for Windows, GraphPad Software, La Jolla Calif. USA, www.graphpad.com. Statistical values including the exact n and statistical significance are also reported. Probe binding blockade and PTGR2 inhibition curves are plotted as mean±SD (n=3 or 4 per group) for a representative biological replicate using a variable slope (four parameter) non-linear fit. Gene expression data are presented as mean±SD (n=3 per group). HSC5 metabolite data are shown as mean±SD (n=3 per group). Statistical significance was defined as P<0.05 and determined by 2-tailed Student t tests, or two-way ANOVA with Bonferroni's post-tests.

The target in assay [2] is T1, PTGR2. The experiment in a line: Gel-based competitor blockade of FFF 8 labeling of recombinantly expressed FLAG-tagged PTGR2 in HEK293T cells. In kind it is binding. The protocol: (§1) For gel-based experiments, cells were grown in 6-well plates to ˜90% confluence at the time of treatment. Cells were carefully washed with Dulbecco's phosphate buffered saline (DPBS) and replenished with fresh serum-free media containing indicated FFF probe, and, if applicable, competitors or DMSO vehicle (1 mL). Following incubation at 37° C. for 30 min, cells were directly exposed to 365 nm light for 10 min. For no UV experiments, cells were incubated at 4° C. for 10 min under ambient light. For MS-based experiments, cell labeling was performed in a similar manner as described above. Modifications to this protocol included using isotopically ‘light’ and ‘heavy’ SILAC cells that were grown to near complete confluence prior to treatment in 10 cm plates. […]
(§2) Cells pellets were lysed in cold DPBS (100-500 µL) using a Branson Sonifier probe sonicator (10 pulses, 30% duty cycle, output setting=4). […] Protein concentration was determined using the DC Protein Assay (Bio-Rad) and absorbance read using a Tecan, Infinite F500 plate reader following manufacturer's instructions. […]
(§3) Proteomes from treated cells were diluted to 1 mg/mL. […] Proteins (25 µg total protein loaded per gel lane) were resolved using SDS-PAGE (10% acrylamide) and visualized by in-gel fluorescence on a Hitachi FMBIO-II or a Bio-Rad ChemiDoc™ MP flatbed fluorescence scanner. […]

The target of assay [3] is T1, PTGR2. Description: PPARγ luciferase reporter assay in PTGR2-transfected HEK293T cells (15-keto-PGE2-dependent). In kind it is cell-based. The conditions noted are these: cells recombinantly expressing PTGR2. On the procedure:
(§4) HEK293T cells were transiently co-transfected using Polyethylenimine (Sigma) with a UAS-Luciferase reporter and a vector expressing the heterologous GAL4 DNA binding domain (DBD) or a GAL4 DNA binding domain::PPARγ ligand binding domain (LBD) chimeric protein, and full-length PTGR2. 24 hr after transfection, cells were treated either with vehicle (DMSO), 15k-PGE2 (20 μM), or fragment compounds. Rosiglitazone (2 μM), a synthetic PPARγ ligand, was used as control. 16 hr after incubation, cells were lysed in Cell Culture Lysis Reagent (Promega) and luciferase activity measured using the Luciferase Assay System (Promega).

The target in assay [4] is T2, PPARγ (Homo sapiens, UniProt P37231).
T2 construct: expressed in transfected cells; host or cells: HEK293T
T2 sequence (P37231 238-503 limits assumed): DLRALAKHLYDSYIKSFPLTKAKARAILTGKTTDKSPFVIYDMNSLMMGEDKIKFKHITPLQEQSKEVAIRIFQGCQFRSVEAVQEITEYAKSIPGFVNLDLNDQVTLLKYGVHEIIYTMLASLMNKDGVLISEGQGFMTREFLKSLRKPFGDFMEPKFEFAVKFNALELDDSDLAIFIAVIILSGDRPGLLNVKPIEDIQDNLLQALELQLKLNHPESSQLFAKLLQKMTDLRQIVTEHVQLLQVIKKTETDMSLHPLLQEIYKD
The experiment in a line: GAL4-PPARγ luciferase reporter assay with empty control vector in HEK293T cells. The following applies: GAL4-PPARγ luciferase reporter and empty control vector. Type of assay: cell-based. On the procedure: as §4
For orientation: Reporter assays use an easily measured gene product as a stand-in for the process of interest.

Assay [5] relates to proteins in HEK293T cells. Description: Gel-based profiling of FFF probe-protein labeling in cells. Type of assay: binding, human. The conditions noted are these: 20 μM, 30 min, UV. On the procedure: as §1, §2, §3
In assay [6] the target is T1, PTGR2. The conditions noted are these: only reported inhibitor of PTGR2; read-out: in vitro IC50 (PTGR2); cited from earlier work.

Molecules are shown by their SMILES.

Usually IC50 stands for the concentration needed to halve the response being measured.

T1 sequence (Q8N8N7 whole entry): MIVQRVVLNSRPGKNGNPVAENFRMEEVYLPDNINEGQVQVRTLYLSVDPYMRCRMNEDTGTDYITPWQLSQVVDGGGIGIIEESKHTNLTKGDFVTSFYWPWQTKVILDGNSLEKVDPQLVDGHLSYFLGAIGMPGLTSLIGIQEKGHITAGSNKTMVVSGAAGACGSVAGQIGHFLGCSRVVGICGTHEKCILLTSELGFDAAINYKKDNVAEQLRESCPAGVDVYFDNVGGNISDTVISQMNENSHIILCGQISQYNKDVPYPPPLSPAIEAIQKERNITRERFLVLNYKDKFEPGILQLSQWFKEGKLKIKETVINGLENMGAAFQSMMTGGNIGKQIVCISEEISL

As for `COc1ccccc1C1CCN(S(=O)(=O)Cc2ccccc2)CC1` [Compound 23, 1-(Benzylsulfonyl)-4-(2-methoxyphenyl)piperidine], the “effect on 15-keto-PGE2 reductase (catalytic) activity of recombinant PTGR2” value in assay [1] is “did not affect”. In addition, the “competitor blockade of FFF 8 labeling of recombinant PTGR2 (gel)” value in assay [2] is “did not affect”. Besides, in assay [3], the “15-keto-PGE2-dependent PPARγ transcriptional activity” value is on record as “no effect”. Moreover, in assay [4], the “direct modulation of PPARγ transcriptional activity” value is “Neither 22 nor 23 directly modulated”.

Consider `C#CCCC1(CCC(=O)NC)N=N1` [probe 1, 3-(3-(But-3-yn-1-yl)-3H-diazirin-3-yl)-N-methylpropanamide], for which, in assay [5], the “protein labeling in HEK293T cells (in-gel fluorescence)” value is listed as “much less protein labeling”.

In the case of `COc1ccc2c(c1)c(CC(=O)O)c(C)n2C(=O)c1ccc(Cl)cc1` [indomethacin], in assay [6], the IC50 is approximately 200 µM.

The values above are taken from US11535597B2, “Photoreactive ligands and uses thereof” (The Scripps Research Institute, priority 2017, dated 2022).
